Test system: rat adjuvant-induced arthritis model
Assay: Rat adjuvant-induced arthritis model
Type: in vivo
Settings: for infiltration of inflammatory cells into the joint after switching from MTX: MTX 0th to 10th day then Compound 1 1 mg/kg to 24th day; for overall effect on the arthritis (summary): summary of leg volume results, injected and non-injected legs
Description: There were intracutaneously injected 0.05 mL (0.6 mg/animal) each of a suspension of killed M. butyricum (12 mg/mL) in liquid paraffin into the back of the right hind legs of 8-week-old female rats of LEW/CrlCrlj line (available from Japan Charles-River Co., Ltd.) to thus induce the arthritis (the 0th day). Then 0.5 mL (per body weight of 100 g) each of an agent solution prepared using a 0.5% methyl cellulose (0.5% MC) was orally administered to each of the test animals. To the adjuvant-injected control animal group, there was administered only the 0.5% MC. Methotrexate (MTX, available from Sigma Company) (0.1 mg/kg) was administered to each test animal, once a day, during the term extending from the 0th day to the 10th day, every day. On or after the 11th day, (R)-2-amino-5-[2-chloro-4-(3-trifluoro methylphenylthio)phenyl]-2-methyl-1-pentanol hydrochloride (hereunder simply referred to as “Compound 1”) (1 mg/kg) was administered to the test animals, instead of methotrexate, once a day up to the 24th day every day. The evaluation of the arthritis was carried out according to the following procedures: The volumes of the right and left hind legs of each test animal were determined on the 0th, 8th, 11th, 14th, 18th, 21st and 25th days of the testing period using a volume-determining meter (MK-550 available from Muromachi Machine, Co., Ltd.) and then the rate of increase in the volume of the hind leg was determined for each of the right and left hind legs of each individual test animal. Then there was prepared a pathological specimen (stained with hematoxylin eosin) of a joint extending from the distal end of the shinbone to the tarsalia to evaluate the degree of the infiltration of inflammatory cells into the joint.
In case of the adjuvant-induced arthritis, acute inflammation, whose far advanced stage is observed on around 3rd day, is recognized on the adjuvant-injected leg and thereafter it is once degenerated. Then the systemic inflammation due to the systemic immunological abnormality is initiated on about 10th day and as a result, the onset of arthritis is observed on the non-injected leg in parallel with the injected leg.

[1] = adjuvant-injected leg, MTX 0.1 mg/kg orally once a day, 0th to 10th day, observed 8th to 11th day, FIG. 1

Question: `C[C@](N)(CO)CCCc1ccc(Sc2cccc(C(F)(F)F)c2)cc1Cl.Cl` [Compound 1, (R)-2-amino-5-[2-chloro-4-(3-trifluoromethylphenylthio)phenyl]-2-methyl-1-pentanol hydrochloride] was tested. Which “progress of the arthritis after switching from MTX” value (adjuvant-injected leg, MTX 0.1 mg/kg 0th to 10th day, then Compound 1 1 mg/kg orally once a day 11th to 24th day, FIG. 1) did it give?
Answer: the progress of the arthritis was inhibited

Question: And the “infiltration of inflammatory cells into the joint after switching from MTX” value (injected leg, pathological specimen, observed 25th day, FIG. 3E)?
Answer: any infiltration of inflammatory cells into the joint was suppressed

Question: And the “onset of the arthritis after switching from MTX” value (non-injected leg, MTX 0.1 mg/kg 0th to 10th day, then Compound 1 1 mg/kg orally once a day 11th to 24th day, FIG. 2)?
Answer: the onset of the arthritis was suppressed

Question: What about the “infiltration of inflammatory cells into the joint after switching from MTX” value (non-injected legs, pathological specimen) of the same compound?
Answer: any infiltration of inflammatory cells into the joint was found to be suppressed

Question: What about the “overall effect on the arthritis (summary)” value of the same compound?
Answer: could maintain the MTX-suppressed condition of the symptom of the arthritis

Question: Which results are given for `CN(Cc1cnc2nc(N)nc(N)c2n1)c1ccc(C(=O)N[C@@H](CCC(=O)O)C(=O)O)cc1` [MTX, Methotrexate]?
Answer: symptom of arthritis after stopping administration (adjuvant-injected leg, MTX 0th to 10th day, discontinued on and after 11th day, FIG. 1): the symptom of arthritis was again advanced; increase in the volume of the leg [1]: there was not observed any increase in the volume of the leg; progress of the arthritis [1]: the progress of the arthritis was found to be inhibited; infiltration of inflammatory cells into the joint (injected leg, pathological specimen (hematoxylin eosin), MTX 0th to 10th day, observed 11th day, FIG. 3B): any infiltration of inflammatory cells into the joint was suppressed; infiltration of inflammatory cells into the joint after stopping administration (injected leg, pathological specimen, MTX 0th to 10th day then stopped, observed 25th day, FIG. 3D): the conspicuous infiltration of inflammatory cells into the joint was recognized; arthritis after stopping administration (non-injected leg, MTX 0th to 10th day, discontinued on and after 11th day, FIG. 2): the arthritis was initiated when stopping the administration of MTX; onset of the arthritis (non-injected leg, MTX 0.1 mg/kg orally 0th to 10th day, at the 11th day, FIG. 2): the onset of the arthritis in the non-injected leg was suppressed; overall effect on the arthritis (summary): could suppress the onset and progress of arthritis, but the arthritis was immediately advanced when stopping the administration thereof

From US20110152275A1, “AGENT FOR MAINTENANCE OF INDUCED REMISSION” (priority 2008, published 2011)
